Measured values reported in the supplement of paper PMC10307832.

Experiments:
Experiment in all cases: relative viability (nuclei count vs DMSO), 5 days (fraction); higher = more cells survive
Carfilzomib + Pictilisib = compound: CC(C)C[C@H](NC(=O)[C@H](CCc1ccccc1)NC(=O)CN1CCOCC1)C(=O)N[C@@H](Cc1ccccc1)C(=O)N[C@@H](CC(C)C)C(=O)[C@@]1(C)CO1 [Carfilzomib] + CS(=O)(=O)N1CCN(Cc2cc3nc(-c4cccc5[nH]ncc45)nc(N4CCOCC4)c3s2)CC1 [Pictilisib] (partner 1 µM)
Method in brief: (§1)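 For relative viability, nuclei counts in treated wells were divided by those in vehicle wells. Lung cancer cell lines had been pin-tool dosed in 1536-well plates the day after seeding and cultured for 5 days, then fixed and stained in one step (final 0.05% Triton X-100, 1% formaldehyde, 1 ug/ml Hoechst) and imaged at 4×. Doses were one drug alone or a fixed anchor-drug dose plus five library-drug doses (not always all listed) in √10 steps, and values are duplicate-plate medians.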

Crizotinib + Decitabine = compound: C[C@@H](Oc1cc(-c2cnn(C3CCNCC3)c2)cnc1N)c1c(Cl)ccc(F)c1Cl [Crizotinib] + Nc1ncn([C@H]2C[C@H](O)[C@@H](CO)O2)c(=O)n1 [Decitabine] (partner 2 µM)
Method in brief: as §1

Crizotinib + Bortezomib = compound: C[C@@H](Oc1cc(-c2cnn(C3CCNCC3)c2)cnc1N)c1c(Cl)ccc(F)c1Cl [Crizotinib] + CC(C)C[C@H](NC(=O)[C@H](Cc1ccccc1)NC(=O)c1cnccn1)B(O)O [Bortezomib] (partner 0.002 µM)
Method in brief: as §1

[1] = compound: CC(C)C[C@H](NC(=O)[C@H](CCc1ccccc1)NC(=O)CN1CCOCC1)C(=O)N[C@@H](Cc1ccccc1)C(=O)N[C@@H](CC(C)C)C(=O)[C@@]1(C)CO1 [Carfilzomib] + CC(=O)c1c(C)c2cnc(Nc3ccc(N4CCNCC4)cn3)nc2n(C2CCCC2)c1=O [Palbociclib] (partner 0.5 µM)
Method in brief: as §1

| Cell Line | relative viability (Carfilzomib + Pictilisib; first compound 0.001 µM) | relative viability (Carfilzomib + Pictilisib; first compound 0.003162 µM) | relative viability (Carfilzomib + Pictilisib; first compound 0.01 µM) | relative viability (Carfilzomib + Pictilisib; first compound 0.03162 µM) | relative viability (Carfilzomib + Pictilisib; first compound 0.1 µM) | relative viability (Crizotinib + Decitabine; first compound 0.01 µM) | relative viability (Crizotinib + Decitabine; first compound 0.03162 µM) | relative viability (Crizotinib + Decitabine; first compound 0.1 µM) | relative viability (Crizotinib + Decitabine; first compound 0.3162 µM) | relative viability (Crizotinib + Decitabine; first compound 1 µM) | relative viability (Crizotinib + Bortezomib; first compound 0.01 µM) | relative viability (Crizotinib + Bortezomib; first compound 0.03162 µM) | relative viability (Crizotinib + Bortezomib; first compound 0.1 µM) | relative viability (Crizotinib + Bortezomib; first compound 0.3162 µM) | relative viability (Crizotinib + Bortezomib; first compound 1 µM) | relative viability ([1]; first compound 0.001 µM) | relative viability ([1]; first compound 0.003162 µM) | relative viability ([1]; first compound 0.01 µM) | relative viability ([1]; first compound 0.03162 µM) | relative viability ([1]; first compound 0.1 µM) |
| --- | --- | --- | --- | --- | --- | --- | --- | --- | --- | --- | --- | --- | --- | --- | --- | --- | --- | --- | --- | --- |
| NCI-H1355 | 0.404 | 0.6 | 0.396 | 0.219 | 0.145 | 0.348 | 0.344 | 0.392 | 0.338 | 0.346 | 1.23 | 1.21 | 1.22 | 1.1 | 1.24 | 0.41 | 0.419 | 0.432 | 0.422 | 0.139 |
| NCI-H1437 | 0.313 | 0.463 | 0.41 | 0.322 | 0.0975 | 0.547 | 0.551 | 0.613 | 0.61 | 0.578 | 0.48 | 0.553 | 0.558 | 0.434 | 0.494 | 0.318 | 0.329 | 0.415 | 0.296 | 0.213 |
| NCI-H1650 |  | 0.685 | 0.284 | 0.127 | 0.151 | 0.3 | 0.455 | 0.466 | 0.396 | 0.468 | 0.188 | 0.173 | 0.205 | 0.159 | 0.2 | 0.306 | 0.371 | 0.209 | 0.11 | 0.188 |
| NCI-H1651 | 0.551 | 0.601 | 0.231 | 0.0999 | 0.0685 | 0.592 | 0.407 | 0.63 | 0.326 | 0.591 | 0.93 | 0.979 | 0.939 | 0.815 | 0.924 | 0.521 | 0.549 | 0.485 | 0.151 | 0.0991 |
| NCI-H1666 | 0.536 | 0.676 | 0.586 | 0.422 | 0.228 | 0.744 | 0.651 | 0.715 | 0.712 | 0.673 | 0.791 | 0.981 | 0.829 | 0.796 | 0.912 | 0.674 | 0.67 | 0.651 | 0.615 | 0.488 |
| NCI-H1734 | 0.476 | 0.501 | 0.389 | 0.234 | 0.127 | 0.466 | 0.5 | 0.493 |  | 0.493 | 1.01 | 0.926 | 0.87 |  | 1.07 | 0.346 | 0.382 | 0.354 | 0.315 | 0.105 |
| NCI-H1755 | 0.412 | 0.479 | 0.413 | 0.239 | 0.16 | 0.639 | 0.713 | 0.755 | 0.694 | 0.661 |  | 0.964 | 0.923 | 0.87 | 0.991 | 0.465 | 0.458 | 0.461 | 0.408 | 0.293 |
| NCI-H1792 | 0.291 | 0.313 | 0.282 | 0.24 | 0.199 | 0.563 | 0.51 | 0.523 |  | 0.514 | 0.955 | 0.983 | 1.01 | 0.931 | 0.917 | 0.655 | 0.646 | 0.707 | 0.634 | 0.466 |
| NCI-H1915 | 0.973 | 1 | 0.8 | 0.572 | 0.123 | 0.229 | 0.256 | 0.261 | 0.258 | 0.26 | 0.98 | 0.921 | 1.06 |  | 0.963 | 0.479 | 0.513 | 0.521 | 0.514 | 0.0575 |
| NCI-H1975 | 0.284 | 0.301 | 0.219 | 0.0929 | 0.101 | 0.404 | 0.322 | 0.466 | 0.31 | 0.39 | 0.317 | 0.362 | 0.315 | 0.373 | 0.404 | 0.364 | 0.635 | 0.472 | 0.119 | 0.107 |
| NCI-H1993 | 0.756 | 0.771 | 0.717 | 0.648 | 0.61 | 0.515 | 0.525 | 0.608 | 0.606 | 0.602 | 0.937 | 1.05 | 0.833 | 0.899 | 0.76 | 0.667 | 0.658 | 0.641 | 0.723 | 0.383 |
| NCI-H2009 | 0.859 | 1.07 | 0.753 | 0.126 | 0.0415 | 0.382 | 0.372 | 0.348 | 0.387 | 0.392 | 0.896 | 1.04 | 1.09 | 0.837 | 0.96 | 0.186 | 0.275 | 0.201 | 0.0584 | 0.0475 |
| NCI-H2023 | 0.213 | 0.257 | 0.263 | 0.156 | 0.0927 | 0.186 | 0.236 | 0.272 | 0.202 | 0.255 | 0.813 | 0.964 | 0.88 | 0.647 | 0.806 | 0.341 | 0.344 | 0.405 | 0.235 | 0.0653 |
| NCI-H2085 | 0.443 | 0.45 | 0.48 | 0.306 | 0.269 | 0.565 | 0.518 | 0.554 | 0.54 | 0.595 | 0.995 | 1.22 | 1.07 | 1.02 | 1.02 | 0.501 | 0.47 | 0.456 | 0.371 | 0.265 |
| NCI-H2087 | 0.802 | 0.874 | 0.552 | 0.0964 | 0.18 | 0.259 | 0.247 | 0.252 | 0.194 | 0.274 | 0.773 | 1.12 | 0.952 | 0.685 | 0.808 | 0.194 | 0.343 | 0.192 | 0.0427 | 0.0568 |
| NCI-H2126 | 0.557 | 0.477 | 0.512 | 0.555 | 0.446 | 0.51 | 0.568 | 0.579 | 0.565 | 0.591 | 1.04 | 1.13 | 1.2 |  | 1.16 | 0.374 | 0.372 | 0.337 | 0.346 | 0.278 |
